# Reference: ChEMBL document CHEMBL6134908, “Inverse Agonists of Peroxisome Proliferator-Activated Receptor Gamma: Advances and Prospects in Cancer Treatment” (J Med Chem, 2025)
# How the values were obtained:
# [1] = Induction of ANGPTL4 mRNA expression in human HT1197 cells
# [2] = target: T1, Peroxisome proliferator-activated receptor gamma (Homo sapiens) (UniProt P37231); test: Inhibition of PPRAgamma in HEK293 cells assessed as […] in FABP4 mRNA expression at 100 nM relative to control; type: cell-based
# T1 sequence (whole entry): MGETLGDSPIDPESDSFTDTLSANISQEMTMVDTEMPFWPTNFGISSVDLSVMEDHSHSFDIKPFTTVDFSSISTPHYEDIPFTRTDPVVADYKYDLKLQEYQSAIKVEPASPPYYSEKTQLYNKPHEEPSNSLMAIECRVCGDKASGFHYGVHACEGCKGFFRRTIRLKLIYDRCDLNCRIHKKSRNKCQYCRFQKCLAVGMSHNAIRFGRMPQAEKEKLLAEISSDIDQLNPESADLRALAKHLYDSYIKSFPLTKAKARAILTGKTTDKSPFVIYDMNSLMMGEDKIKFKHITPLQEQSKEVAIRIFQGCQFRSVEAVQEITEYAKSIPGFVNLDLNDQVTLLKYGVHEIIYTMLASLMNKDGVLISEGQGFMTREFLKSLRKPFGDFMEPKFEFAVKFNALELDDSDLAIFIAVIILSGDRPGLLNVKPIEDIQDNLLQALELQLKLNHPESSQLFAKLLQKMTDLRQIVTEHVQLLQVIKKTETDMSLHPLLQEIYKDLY
Structure (SMILES),EC50 [1],inhibition [2]
N#Cc1cc(-c2cc(=O)c3c(F)cc(F)cc3[nH]2)c(Cl)cn1,0.14 nM,–
N#Cc1ccc(Cl)c(-c2cc(=O)c3c(F)cc(F)cc3[nH]2)c1,–,95%
